Measured values from ChEMBL document CHEMBL5030563, “Structure-Based Design of Dual-Acting Compounds Targeting Adenosine A2A Receptor and Histone Deacetylase as Novel Tumor Immunotherapeutic Agents” (J Med Chem, 2021).

Experiments:
[1] = biological target: T1, Histone deacetylase 8 (Homo sapiens, UniProt Q9BY41); assay: Inhibition of HDAC8 (unknown origin) assessed as release of 7-amino-4-methylcoumarin incubated in room temperature for 15 min measured by Spectra max microtitre plate reader
T1 sequence (Q9BY41 whole entry): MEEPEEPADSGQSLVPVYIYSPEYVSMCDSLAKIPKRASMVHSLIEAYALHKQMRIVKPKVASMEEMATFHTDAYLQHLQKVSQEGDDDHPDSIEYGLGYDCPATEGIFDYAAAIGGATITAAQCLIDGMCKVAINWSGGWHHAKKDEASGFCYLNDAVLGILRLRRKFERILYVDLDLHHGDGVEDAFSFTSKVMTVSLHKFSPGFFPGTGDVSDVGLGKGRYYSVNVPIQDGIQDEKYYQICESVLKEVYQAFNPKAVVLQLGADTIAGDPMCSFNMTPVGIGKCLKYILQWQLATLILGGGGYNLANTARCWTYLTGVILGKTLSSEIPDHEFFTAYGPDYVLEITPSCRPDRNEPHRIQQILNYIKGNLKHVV

[2] = biological target: Histone deacetylase 2 (Homo sapiens, UniProt Q92769); assay: Inhibition of HDAC2 (unknown origin) assessed as release of 7-amino-4-methylcoumarin incubated in room temperature for 15 min measured by Spectra max microtitre plate reader
Histone deacetylase 2, sequence (Q92769 whole entry): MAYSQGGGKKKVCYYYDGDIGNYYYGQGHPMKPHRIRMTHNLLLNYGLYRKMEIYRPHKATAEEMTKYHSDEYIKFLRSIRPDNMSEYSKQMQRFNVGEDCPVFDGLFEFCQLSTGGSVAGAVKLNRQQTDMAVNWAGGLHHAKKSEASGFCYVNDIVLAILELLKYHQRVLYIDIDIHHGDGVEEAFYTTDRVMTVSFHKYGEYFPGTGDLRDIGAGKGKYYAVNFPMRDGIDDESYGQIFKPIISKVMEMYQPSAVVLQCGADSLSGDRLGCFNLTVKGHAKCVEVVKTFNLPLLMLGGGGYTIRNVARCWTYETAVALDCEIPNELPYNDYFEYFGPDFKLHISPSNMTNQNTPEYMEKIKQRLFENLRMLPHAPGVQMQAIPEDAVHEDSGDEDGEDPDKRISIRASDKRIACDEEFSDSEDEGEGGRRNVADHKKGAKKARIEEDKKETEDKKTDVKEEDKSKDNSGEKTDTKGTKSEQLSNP

[3] = AUC (0 to […]) in ICR mouse at 20 mg/kg, ip up to 24 hrs by LC-MS/MS analysis; assay type: ADME, organism-based; design: route intraperitoneal, dose 20 mg/kg, time <=24; details: in vivo
[4] = tested on: MC-38; assay: Antitumour activity against mouse MC38 cells in C57BL/6 mouse assessed as tumour growth inhibition at 60 mg/kg, ip, bid measured after 9 days relative to control; assay type: functional; details: MC-38, ip, 216 h, time 9 day, read-out: TGI
[5] = Volume of distribution in ICR mouse at 5 mg/kg, iv up to 24 hrs by LC-MS/MS analysis; assay type: ADME, organism-based; details: in vivo
[6] = biological target: Histone deacetylase 3 (Homo sapiens, UniProt O15379); assay: Inhibition of HDAC3 (unknown origin) assessed as release of 7-amino-4-methylcoumarin incubated in room temperature for 15 min measured by Spectra max microtitre plate reader
Histone deacetylase 3, sequence (O15379 whole entry): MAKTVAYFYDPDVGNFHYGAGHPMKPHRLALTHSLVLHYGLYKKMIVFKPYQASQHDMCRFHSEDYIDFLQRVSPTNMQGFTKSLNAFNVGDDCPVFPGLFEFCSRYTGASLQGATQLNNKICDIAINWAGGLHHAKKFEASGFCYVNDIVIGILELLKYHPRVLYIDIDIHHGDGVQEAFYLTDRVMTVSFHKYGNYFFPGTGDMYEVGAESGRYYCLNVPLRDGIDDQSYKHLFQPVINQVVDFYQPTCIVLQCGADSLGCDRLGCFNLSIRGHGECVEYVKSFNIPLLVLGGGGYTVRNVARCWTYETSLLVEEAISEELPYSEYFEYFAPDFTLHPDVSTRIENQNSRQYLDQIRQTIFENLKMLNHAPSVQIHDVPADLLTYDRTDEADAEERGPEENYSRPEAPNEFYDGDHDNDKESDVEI

[7] = tested on: MC38; assay: Inhibition of HDAC in mouse MC38 cells assessed as increase in acetyl-histone H4 measured after 24 hrs by Western blot analysis; assay type: cell-based
[8] = Elimination rate constant in ICR mouse at 20 mg/kg, po up to 24 hrs by LC-MS/MS analysis; assay type: ADME, organism-based; details: in vivo
[9] = Cmax in ICR mouse at 5 mg/kg, iv up to 24 hrs by LC-MS/MS analysis; assay type: ADME, organism-based; design: route intravenous, dose 5 mg/kg, time <=24; details: in vivo
[10] = MRT in ICR mouse at 20 mg/kg, ip up to 24 hrs by LC-MS/MS analysis; assay type: ADME, organism-based; details: in vivo
[11] = Oral bioavailability in ICR mouse at 20 mg/kg by LC-MS/MS analysis; assay type: ADME, organism-based; details: in vivo
[12] = Bioavailability in ICR mouse at 20 mg/kg up to 24 hrs by LC-MS/MS analysis; assay type: ADME, organism-based; details: in vivo
[13] = Cmax in ICR mouse at 20 mg/kg, ip up to 24 hrs by LC-MS/MS analysis; assay type: ADME, organism-based; design: route intraperitoneal, dose 20 mg/kg, time <=24; details: in vivo
[14] = Initial plasma concentration in ICR mouse at 5 mg/kg, iv up to 24 hrs by LC-MS/MS analysis; assay type: ADME, organism-based
[15] = biological target: Histone deacetylase 1 (Homo sapiens, UniProt Q13547); assay: Inhibition of HDAC1 (unknown origin) assessed as release of 7-amino-4-methylcoumarin incubated in room temperature for 15 min measured by Spectra max microtitre plate reader
Histone deacetylase 1, sequence (Q13547 whole entry): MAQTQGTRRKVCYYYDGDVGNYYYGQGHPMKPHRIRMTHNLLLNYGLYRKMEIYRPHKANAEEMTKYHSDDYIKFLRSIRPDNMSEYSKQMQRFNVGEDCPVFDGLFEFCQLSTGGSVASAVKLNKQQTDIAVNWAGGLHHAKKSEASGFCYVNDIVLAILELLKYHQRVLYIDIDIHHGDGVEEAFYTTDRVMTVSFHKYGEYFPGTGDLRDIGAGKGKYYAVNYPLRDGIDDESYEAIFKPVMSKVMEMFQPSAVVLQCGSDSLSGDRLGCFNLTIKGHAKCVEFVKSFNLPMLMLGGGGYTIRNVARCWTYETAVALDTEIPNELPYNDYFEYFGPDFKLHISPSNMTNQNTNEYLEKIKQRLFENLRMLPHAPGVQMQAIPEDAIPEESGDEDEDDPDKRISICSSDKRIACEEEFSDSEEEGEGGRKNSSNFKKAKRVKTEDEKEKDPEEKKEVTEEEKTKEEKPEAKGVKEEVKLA

[16] = Toxicity in C57BL/6 mouse assessed as loss in body weight at 30 to 60 mg/kg, ip, bid measured after 9 days; assay type: organism-based; details: in vivo, 216 h, dose 30-60 mg/kg, time 9 day
[17] = MRT in ICR mouse at 20 mg/kg, po by LC-MS/MS analysis; assay type: ADME, organism-based; details: in vivo
[18] = tested on: MC-38; assay: Antitumour activity against mouse MC38 cells in C57BL/6 mouse assessed as tumour growth inhibition at 50 mg/kg, ip, bid measured after 9 days relative to control; assay type: functional; details: MC-38, ip, 216 h, time 9 day, read-out: TGI
[19] = tested on: CT26; assay: Antiproliferative activity against mouse CT26 cells measured after 72 hrs by CCK8 assay; assay type: functional; details: Mus musculus, CT26
[20] = biological target: T2, Histone deacetylase 7 (Homo sapiens, UniProt Q8WUI4); assay: Inhibition of HDAC7 (unknown origin) assessed as release of 7-amino-4-methylcoumarin incubated in room temperature for 15 min measured by Spectra max microtitre plate reader
T2 sequence (Q8WUI4 whole entry): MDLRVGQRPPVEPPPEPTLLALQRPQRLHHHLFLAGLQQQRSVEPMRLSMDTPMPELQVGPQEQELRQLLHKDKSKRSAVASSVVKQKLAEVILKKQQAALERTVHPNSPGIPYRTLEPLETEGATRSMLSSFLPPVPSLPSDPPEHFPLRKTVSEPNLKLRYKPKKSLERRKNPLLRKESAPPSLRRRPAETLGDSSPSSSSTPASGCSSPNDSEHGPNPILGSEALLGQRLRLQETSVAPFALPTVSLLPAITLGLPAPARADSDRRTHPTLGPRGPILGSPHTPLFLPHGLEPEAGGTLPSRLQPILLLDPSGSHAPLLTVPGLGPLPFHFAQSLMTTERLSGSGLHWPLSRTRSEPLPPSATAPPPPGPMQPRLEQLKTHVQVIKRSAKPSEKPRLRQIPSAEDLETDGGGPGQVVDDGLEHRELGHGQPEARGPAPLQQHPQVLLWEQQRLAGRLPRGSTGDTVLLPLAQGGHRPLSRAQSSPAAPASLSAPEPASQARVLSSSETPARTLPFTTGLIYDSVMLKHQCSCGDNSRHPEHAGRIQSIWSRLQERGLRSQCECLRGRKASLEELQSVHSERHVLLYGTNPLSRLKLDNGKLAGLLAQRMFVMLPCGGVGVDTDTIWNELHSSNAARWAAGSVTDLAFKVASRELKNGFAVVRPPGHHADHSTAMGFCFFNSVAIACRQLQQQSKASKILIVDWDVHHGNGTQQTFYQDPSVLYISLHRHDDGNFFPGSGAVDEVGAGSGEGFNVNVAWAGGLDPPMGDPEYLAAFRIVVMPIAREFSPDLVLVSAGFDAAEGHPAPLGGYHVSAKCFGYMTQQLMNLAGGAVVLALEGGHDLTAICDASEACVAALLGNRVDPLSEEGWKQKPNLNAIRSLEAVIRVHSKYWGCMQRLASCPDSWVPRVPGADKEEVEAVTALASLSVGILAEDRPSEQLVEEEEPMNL

[21] = Tmax in ICR mouse at 20 mg/kg, ip up to 24 hrs by LC-MS/MS analysis; assay type: ADME, organism-based; details: in vivo

IC50 [1]: > 10000 nM | IC50 [2]: 179 nM | AUC(0-t) [3]: 6540 ng·h/mL | Vd [5]: 1.19 L/kg | IC50 [6]: 449 nM | k el at 24 h [8]: 9.86e-05 s⁻¹ | Cmax [9]: 3320 ng/mL | MRT [10]: 2.61 h | bioavailability [11]: 30.3% | bioavailability [12]: 112% | Cmax [13]: 2160 ng/mL | C0 at 24 h [14]: 4580 ng/mL | IC50 [15]: 80.2 nM | MRT [17]: 1.41 h | GI50 [19]: 6100 nM | IC50 [20]: > 10000 nM | Tmax [21]: 0.417 h
Compound: Nc1ccccc1NC(=O)c1ccc(CCn2ncc3c2nc(N)n2nc(-c4ccco4)nc32)cc1
inhibition in vivo at 60 mg/kg [4]: 95.3% | Activity [7]: Dose-Dependent Effect | Activity [16]: Toxic | inhibition in vivo at 50 mg/kg [18]: 81%
